According to patent US7772216B2, “Protein kinase and phosphatase inhibitors and methods for designing them” (The Research Foundation of State University of New York, priority 2001, dated 2010):
Several values for one entry are separate records, joined by “and”; a condition that tells them apart may be missing. Equal values may be shown once. Read-outs that look alike come from different tables or passages of the source. Starred links: 1 amine or outer side, 2 acyl side, 3 side chain; linkers in the order of their positions; H or OH if unused. Non-standard residues stand in square brackets, D forms with d. Residues, ends and D or L forms follow the SMILES beside them. X5 = O=C([C@H](CNS(=O)(=O)O)N[*:1])[*:2]; X6 = NS(=O)(=O)CC[C@H](N[*:1])C(=O)[*:2]; X4 = O=C([C@H](CCCB(O)O)N[*:1])[*:2]; X2 = O=C([C@@H](CB(O)O)N[*:1])[*:2]; X3 = O=C([C@H](CCB(O)O)N[*:1])[*:2]; X1 = O=C([C@H](CB(O)O)N[*:1])[*:2]

What was measured:
pp60^c-src = pp60^c-src (Homo sapiens, UniProt P12931); assay: Cellular Mimetic Src assay (RR-SRC phosphorylation); details: for inhibition at 500 µM: read-out: % Inhibition of 2 mM RR-src at Inhibitor Concentration (500 μM); for inhibition at 45 µM: inhibitor at 45 μM; for Ki: Table IV; for inhibition at 1000 µM: read-out: % Inhibition of 2 mM RR-src at Inhibitor Concentration (1 mM)
Sequence of pp60^c-src (P12931 whole entry): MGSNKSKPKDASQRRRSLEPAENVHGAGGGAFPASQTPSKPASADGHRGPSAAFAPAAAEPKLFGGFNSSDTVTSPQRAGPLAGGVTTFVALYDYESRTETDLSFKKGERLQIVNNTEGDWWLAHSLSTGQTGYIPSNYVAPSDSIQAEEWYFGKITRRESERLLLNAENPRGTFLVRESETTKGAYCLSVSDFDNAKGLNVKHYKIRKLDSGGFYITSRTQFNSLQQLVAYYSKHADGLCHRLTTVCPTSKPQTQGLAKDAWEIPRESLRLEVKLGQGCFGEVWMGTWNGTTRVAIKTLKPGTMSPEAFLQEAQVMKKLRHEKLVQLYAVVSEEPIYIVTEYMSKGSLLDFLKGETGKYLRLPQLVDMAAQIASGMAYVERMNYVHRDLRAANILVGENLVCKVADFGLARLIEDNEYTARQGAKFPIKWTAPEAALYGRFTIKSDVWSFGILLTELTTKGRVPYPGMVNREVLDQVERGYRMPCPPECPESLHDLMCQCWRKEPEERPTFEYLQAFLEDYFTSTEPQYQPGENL

PKA [1] = molecular target: T1, PKA (Homo sapiens, UniProt P17612); assay: Literature Mimetic PKA assay; format: biochemical; details: for inhibition at 1000 µM: 1000 μM inhibitor; for Ki: Literature Mimetic (L) conditions, pentapeptide PKA inhibitors; for IC50: Literature Mimetic
Description: (§1) The boronic acid inhibitors 21-24 have two Arg's in their sequence also and therefore will bind to the phosphocellulose paper in addition to Kemptamide (although not as consistently or completely due to one less positive charge). Consequently, when analyzed as inhibitors, the amount of phosphorylated Kemptamide produced was not only counted, but also the amount of phosphorylated inhibitor simultaneously produced (e.g. see 26 below). The net result is that distorted IC50 curves are obtained which show net “stimulation” at higher inhibitor concentrations in some cases. […] The underlying substrate behavior of these “inhibitors” makes an accurate measurement of their inhibition potency impossible with the current assay. However, it does appear from the data that homologating the boronic acid functionality out with only CH2 groups (homologations with boronic acid non-peptide Src inhibitors may also be carried out) decreases the binding affinity and ability to function as a substrate.

PKA [2] = molecular target: T1, PKA; assay: Cellular Mimetic PKA assay; format: biochemical; details: for % sti (stimulation) / inhibition at 2000 µM: 2000 μM inhibitor, C; for IC50: Cellular Mimetic
Description: as §1
Phosphorylated Kemptamide is SEQ. ID. No. 6. Phosphorylated 22 is SEQ. ID. No. 4. […] The graphs show their respective rates and levels of phosphorylation with the typical loss of initial velocity kinetics with time (due to substrate depletion and end product inhibition), analogous to a standard L-Ser substrate such as Kemptamide. The comparison of 21 to 22 shown was done in the same assay run, at identical boronic acid substrate concentrations, and with identical Cellular Mimetic assay solutions so that the cpm's could be directly compared. […] That the boronic acid moiety would be phosphorylated by PKA was surprising, but it is even more surprising that the phosphonic-boronic acid mixed anhydride produced (e.g. 26) was stable enough to survive the pH 7.2/37° C. assay incubation and then be isolated by binding to phosphocellulose paper after acid quenching of the reaction with 10% TCA and washing the phosphocellulose paper with 25 mM phosphoric acid (3×). An STN substructure search was run on mixed anhydrides of phosphoric and boronic acids and found only three references to experiments and theoretical calculations for the analogous putative (but not proven) anhydride formed from boric acid and phosphoric acid as a solid surface impregnated catalyst for the partial oxidation of ethane to acetaldehyde at 823° K. (Zhanpeisov & Otsuka, 1992, Otsuka et al., 1992, Murakami et al., 1990). However, this highly unusual anhydride has never before been synthesized free of a solid surface, isolated, or characterized. Thus, this is a novel enzymatic reaction and chemical entity with interesting possibilities for protein kinase inhibitor designs.

EGFRTK = EGFRTK (Homo sapiens, UniProt P00533); assay: EGFRTK inhibition; format: biochemical; details: % inhibition at 10 micromolar compound
Sequence of EGFRTK (P00533 25-1210): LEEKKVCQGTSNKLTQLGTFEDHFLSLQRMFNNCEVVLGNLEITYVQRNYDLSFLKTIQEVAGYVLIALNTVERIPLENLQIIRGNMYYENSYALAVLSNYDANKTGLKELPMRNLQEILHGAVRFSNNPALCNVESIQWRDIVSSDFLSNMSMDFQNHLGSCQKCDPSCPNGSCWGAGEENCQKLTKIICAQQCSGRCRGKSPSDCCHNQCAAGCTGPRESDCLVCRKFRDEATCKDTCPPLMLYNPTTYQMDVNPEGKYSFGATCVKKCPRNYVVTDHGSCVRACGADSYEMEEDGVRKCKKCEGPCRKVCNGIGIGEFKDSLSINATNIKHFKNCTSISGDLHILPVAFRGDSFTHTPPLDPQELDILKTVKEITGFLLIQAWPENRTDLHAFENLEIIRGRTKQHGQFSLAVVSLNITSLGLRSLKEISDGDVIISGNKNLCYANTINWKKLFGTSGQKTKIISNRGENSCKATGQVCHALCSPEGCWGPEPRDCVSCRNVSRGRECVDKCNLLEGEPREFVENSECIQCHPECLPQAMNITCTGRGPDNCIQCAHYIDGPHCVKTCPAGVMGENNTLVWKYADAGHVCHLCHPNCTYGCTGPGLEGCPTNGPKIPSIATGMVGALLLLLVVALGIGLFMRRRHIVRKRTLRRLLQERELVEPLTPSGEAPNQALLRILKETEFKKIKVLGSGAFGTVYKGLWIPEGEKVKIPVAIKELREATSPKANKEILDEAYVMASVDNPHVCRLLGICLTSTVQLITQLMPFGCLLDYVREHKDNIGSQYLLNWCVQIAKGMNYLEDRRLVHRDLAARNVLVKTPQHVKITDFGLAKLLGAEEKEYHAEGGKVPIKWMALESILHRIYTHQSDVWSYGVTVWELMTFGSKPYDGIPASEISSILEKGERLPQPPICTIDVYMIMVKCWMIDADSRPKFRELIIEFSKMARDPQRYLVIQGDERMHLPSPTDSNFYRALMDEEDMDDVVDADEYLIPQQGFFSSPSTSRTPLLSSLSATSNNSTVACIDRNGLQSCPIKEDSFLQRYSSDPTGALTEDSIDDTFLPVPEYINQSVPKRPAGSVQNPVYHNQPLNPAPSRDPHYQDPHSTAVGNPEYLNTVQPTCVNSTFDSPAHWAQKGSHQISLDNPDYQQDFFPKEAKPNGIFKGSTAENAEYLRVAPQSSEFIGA
Description: (§2) Blanks for a particular enzyme indicate that inhibition was not found.

PTP-1B = molecular target: T2, PTP-1B (Homo sapiens, UniProt P18031); assay: PTP-1B inhibition; format: biochemical; details: % inhibition at 10 micromolar compound
T2 sequence (P18031 1-435): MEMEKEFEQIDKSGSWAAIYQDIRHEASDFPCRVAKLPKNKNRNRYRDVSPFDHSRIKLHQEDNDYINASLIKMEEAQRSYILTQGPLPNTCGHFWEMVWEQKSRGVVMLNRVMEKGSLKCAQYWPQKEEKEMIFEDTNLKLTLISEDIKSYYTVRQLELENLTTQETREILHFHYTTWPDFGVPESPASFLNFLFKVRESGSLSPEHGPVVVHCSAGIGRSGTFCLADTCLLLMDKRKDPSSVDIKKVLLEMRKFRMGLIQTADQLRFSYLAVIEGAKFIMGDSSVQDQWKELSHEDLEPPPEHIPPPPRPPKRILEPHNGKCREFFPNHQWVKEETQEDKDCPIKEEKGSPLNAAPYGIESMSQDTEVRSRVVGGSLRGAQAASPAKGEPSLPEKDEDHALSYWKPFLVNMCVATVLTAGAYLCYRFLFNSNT
Description: as §2

[3] = read-out: % Inhibition of 2 mM RR-src at Inhibitor Concentration (100 μM)
[4] = IC50 μM (cond. C, 4 h preincubation), 4 h preincubation
[5] = 0 h preincubation, read-out: IC50 μM (cond. L, 0 h preincubation)
[6] = 0 h preincubation, * very distorted IC50 curve, read-out: IC50 μM (cond. C, 0 h preincubation)
[7] = read-out: % Inhibition at 100 μM (std. dev.)
[8] = IC50 μM (cond. L, 4 h preincubation), 4 h preincubation, * very distorted IC50 curve

## COC(=O)c1cc2ccc(B(O)O)cc2cn1
pp60^c-src
  inhibition at 500 µM: 13%

## OB(O)c1ccc(-c2ccccc2)cc1
pp60^c-src; [3]
  inhibition at 100 µM: 13%

## OB(O)c1cccc(-c2ccccc2)c1
pp60^c-src; [3]
  inhibition at 100 µM: 14%

## COC(=O)c1cc2ccc(O)cc2cc1O
pp60^c-src; [3]
  inhibition at 100 µM: 47%

## O=C(Nc1cccc(O)c1)c1ccc2cc(O)ccc2c1
pp60^c-src; [3]
  inhibition at 100 µM: 45%

## COC(=O)c1cc2cc(O)ccc2[nH]1
pp60^c-src
  inhibition at 500 µM: 40%

## CC[C@H](C)[C@H](NC(=O)[C@H](CCCB(O)O)NC(=O)CNC(=O)[C@H](CCCNC(=N)N)NC(=O)[C@H](CCCNC(=N)N)NC(C)=O)C(N)=O (Ac-RRG[X4]I-NH2)
PKA [1]; L, 0 h preincubation
  inhibition at 1000 µM: 33%
PKA [1]; L, 4 h preincubation
  inhibition at 1000 µM: 44%
PKA [2]; 0 h preincubation
  % sti (stimulation): 2000 μM 6% sti
PKA [2]; [4]
  IC50: 1730 µM

## O=C(NCc1cccc(O)c1)c1cc2cc(O)ccc2[nH]1 [Cmpd 2k]
pp60^c-src; [ATP] 200 μM
  inhibition at 45 µM: 46%
pp60^c-src; [ATP] 1,000 μM
  inhibition at 45 µM: 41%
pp60^c-src; read-out: % Inhibition at 100 μM (std. dev.), Table X, hydroxyindole derivatives
  inhibition at 100 µM: 74%

## COc1cccc([C@H](C)NC(=O)c2cc3cc(F)ccc3[nH]2)c1 [Compound 1aa]
EGFRTK
  EGFRTK @ 10 μm: 12%

## O=C(NCc1cc(C(F)(F)F)ccc1F)c1cc2cc(F)ccc2[nH]1 [Compound 1aaa]
PTP-1B
  PTP-1B @ 10 μm: 12%

## O=C(NCc1ccccc1)c1cc2cc(F)ccc2[nH]1 [Compound 1bb]
EGFRTK
  EGFRTK @ 10 μm: 19%

## O=C(N[C@H](c1ccccc1)[C@H](O)c1ccccc1)c1cc2cc(F)ccc2[nH]1 [Compound 1cc]
EGFRTK
  EGFRTK @ 10 μm: 19%

## O=C(N[C@@H](c1ccccc1)[C@@H](O)c1ccccc1)c1cc2cc(F)ccc2[nH]1 [Compound 1dd]
EGFRTK
  EGFRTK @ 10 μm: 41%

## COc1ccc(CNC(=O)c2cc3cc(F)ccc3[nH]2)cc1 [Compound 1ee]
EGFRTK
  EGFRTK @ 10 μm: 16%

## O=C(NCc1cccc(I)c1)c1cc2cc(F)ccc2[nH]1 [Compound 1ff]
EGFRTK
  EGFRTK @ 10 μm: 24%

## Cc1ccccc1CNC(=O)c1cc2cc(F)ccc2[nH]1 [Compound 1ffff]
EGFRTK
  EGFRTK @ 10 μm: 12%

## O=C(NCc1ccc(O)c(O)c1)c1cc2cc(F)ccc2[nH]1 [Compound 1gggg]
EGFRTK
  EGFRTK @ 10 μm: 25%

## O=C(NCc1cc(OCc2ccccc2)cc(OCc2ccccc2)c1)c1cc2cc(F)ccc2[nH]1 [Compound 1iiii]
EGFRTK
  EGFRTK @ 10 μm: 12%

## O=C(NCc1ccc(Br)cc1)c1cc2cc(F)ccc2[nH]1 [Compound 1kkkk]
EGFRTK
  EGFRTK @ 10 μm: 30%

## CCCOc1ccc(CNC(=O)c2cc3cc(F)ccc3[nH]2)cc1O [Compound 1nnnn]
EGFRTK
  EGFRTK @ 10 μm: 17%

## O=C(NCCCCCCO)c1cc2cc(F)ccc2[nH]1 [Compound 1qqqq]
EGFRTK
  EGFRTK @ 10 μm: 18%

## O=C(Nc1cccc(CO)c1)c1cc2cc(F)ccc2[nH]1 [Compound 1yyy]
EGFRTK
  EGFRTK @ 10 μm: 11%

## O=C(NCc1ccc(F)cc1C(F)(F)F)c1[nH]c2ccc(F)cc2c1-c1ccccc1 [Compound 2hh]
EGFRTK
  EGFRTK @ 10 μm: 12%

## O=C(NCc1cc(Br)ccc1F)c1[nH]c2ccc(F)cc2c1-c1ccccc1 [Compound 2ll]
EGFRTK
  EGFRTK @ 10 μm: 10%

## CC[C@H](C)[C@H](NC(=O)[C@H](CCS(N)(=O)=O)NC(=O)CNC(=O)[C@H](CCCNC(=N)N)NC(=O)[C@H](CCCNC(=N)N)NC(C)=O)C(N)=O [Compound 7] (Ac-RRG[X6]I-NH2)
PKA [1]; read-out: Ki
  Ki: 300 µM

## CC[C@H](C)[C@H](NC(=O)[C@H](CNS(=O)(=O)O)NC(=O)CNC(=O)[C@H](CCCNC(=N)N)NC(=O)[C@H](CCCNC(=N)N)NC(C)=O)C(N)=O [Compound 8] (Ac-RRG[X5]I-NH2)
PKA [1]; Ki
  Ki: 0.16 µM

## CC[C@H](C)[C@H](NC(=O)[C@H](CB(O)O)NC(=O)CNC(=O)[C@H](CCCNC(=N)N)NC(=O)[C@H](CCCNC(=N)N)NC(C)=O)C(N)=O [Compound 21] (Ac-RRG[X1]I-NH2)
PKA [1]; 500 μM inhibitor, L, 4 h preincubation
  inhibition at 500 µM: 34%
PKA [1]; read-out: Ki
  Ki: ~9 µM
PKA [1]; [5]
  IC50: 249 µM
PKA [2]; 4 h preincubation
  % sti (stimulation): 19%
PKA [2]; 4 h preincubation, listed as drawing 32
  % sti (stimulation): *2000 μM 19% sti
PKA [2]; [6]
  IC50: 764 µM
pp60^c-src; [7]
  inhibition at 100 µM: 54%

## CC[C@H](C)[C@H](NC(=O)[C@@H](CB(O)O)NC(=O)CNC(=O)[C@H](CCCNC(=N)N)NC(=O)[C@H](CCCNC(=N)N)NC(C)=O)C(N)=O [Compound 22] (Ac-RRG[X2]I-NH2)
PKA [1]; [8]
  IC50: 65 µM
PKA [1]; [5]
  IC50: 81 µM
PKA [2]; 4 h preincubation
  % sti (stimulation): 71%
PKA [2]; 4 h preincubation, listed as drawing 33
  % sti (stimulation): *2000 μM 71% sti
PKA [2]; [6]
  IC50: 1750 µM

## CC[C@H](C)[C@H](NC(=O)[C@H](CCB(O)O)NC(=O)CNC(=O)[C@H](CCCNC(=N)N)NC(=O)[C@H](CCCNC(=N)N)NC(C)=O)C(N)=O [Compound 23] (Ac-RRG[X3]I-NH2)
PKA [1]; [8]
  IC50: 133 µM
PKA [1]; [5]
  IC50: 398 µM
PKA [2]; 0 h preincubation
  inhibition at 2000 µM: 16%
PKA [2]; 4 h preincubation
  % sti (stimulation): 5%
  inhibition at 2000 µM: 5%

## OB(O)c1ccc2ccccc2c1 [Compound 27, 2-naphthalene boronic acid]
pp60^c-src
  IC50: 950 µM
  Ki: ~554 µM and 554 µM
  inhibition at 1000 µM: 59%
pp60^c-src; [3]
  inhibition at 100 µM: 13%

## O=S(=O)(O)Nc1ccc2ccccc2c1 [Compound 28]
pp60^c-src
  IC50: 1600 µM
  Ki: 963 µM
  inhibition at 1000 µM: 31%

## N=c1oc2c(O)cccc2cc1C(=O)Nc1cccc(O)c1 [Compound 50, reference compound]
pp60^c-src; Table V, inhibitor 100 μM
  % Inhibition of 2 mM RR-src at Inhibitor Concentration (100 μM): 30 (100 μM) %
pp60^c-src; [3]
  inhibition at 100 µM: 30%

## N=c1oc2c(O)cccc2cc1C(=O)Nc1cccc(O)c1 [Iminochromene 9TA, reference compound]
pp60^c-src; Table IX, hydroxynaphthalene derivatives and published inhibitors
  % Inhibition at 100 μM (std. dev.): 30 (+/−15) %
pp60^c-src; [7]
  inhibition at 100 µM: 30%

## Oc1cc(O)cc(/C=C/c2ccc(O)c(O)c2)c1 [Piceatannol, reference compound]
pp60^c-src; read-out: % Inhibition at 100 μM (std. dev.), Table IX, hydroxynaphthalene derivatives and published inhibitors
  inhibition at 100 µM: 41%

## Oc1cc(O)cc(/C=C/c2ccc(O)c(O)c2)c1 [drawing 66, piceatannol, reference compound]
pp60^c-src; read-out: % Inhibition of 2 mM RR-src at Inhibitor Concentration (100 μM), Table V, inhibitor 100 μM
  inhibition at 100 µM: 41%

## Ac-RRGAI-NH2 [Compound 20]
PKA [1]; [8]
  IC50: 417 µM
PKA [1]; read-out: Ki
  Ki: ~9 µM and 9 µM
PKA [1]; [5]
  IC50: 278 µM
PKA [2]; Cellular Mimetic (C) conditions
  Ki: 25 µM
PKA [2]; [6]
  IC50: 41 µM
PKA [2]; [4]
  IC50: 50 µM
